Tested on: not listed separately
Experiment: Assay for oral absorptivity (plasma drug level after oral administration)
Format: in vivo
Settings: male, rat, 40 umol/kg; SD rats, oral, plasma
Experimental: 1) Preparation of Specimen for Measuring Drug Level upon Oral Administration
For use as experimental animals, SD rats (Charles River Japan, male, 8 weeks old, 220-270 g) was starved overnight. Test compounds (25˜30 mg) were dissolved in polyethyleneglycol 400 (PEG400) 20%, and a 0.5% carboxy methyl cellulose (CMC) solution 80% to produce solutions of 4 μmmol/mL. The rats were weighed. The test compounds were orally administered at a dose of 40 μmol/kg (ca. 25˜30 mg/kg) to the rats using a sonde and a 3 mL syringe. Blood samples were taken 20, 40, 60, 120, 240, and 360 min after the oral administration. Plasmas separated from the blood samples by centrifugation were used as specimens.
2) Measurement of Drug Level
0.09 mL of methanol was added to 0.03 mL of the plasma obtained in 1), followed by vortexing to precipitate and remove proteins. 0.005 mL of the supernatant was injected to LC/MS/MS.
Apparatus: Shiseido Nanospace SI-2
Column: Shiseido capcelpack C18, MG3, 5 um, 2.0 mm I.D×50 mm
Mobile Phase: a mixture of 3:7 10 mM ammonium formate (pH 4.0): acetonitrile.

| Cmax | Structure (SMILES) |
| --- | --- |
| 5100 ng/mL | Cc1c(N2CCN(Cc3cccc(C(F)(F)F)c3)CC2)c(=O)n(C[C@H](NCCCC(=O)O)c2ccccc2)c(=O)n1Cc1c(F)cccc1C(F)(F)F [Compound 11-2] |
| 4140 ng/mL | Cc1cc(F)cc([C@H](Cn2c(=O)c(N3CCN(Cc4ccc(C(F)(F)F)o4)CC3)c(C)n(Cc3c(F)cccc3C(F)(F)F)c2=O)NCCCC(=O)O)c1 [Compound 11-4] |

Same assay, conditions: male, rat, 40 μmol/kg; plasma drug level after oral administration, SD rats; read-out: AUC8 hr

| AUC(0-t) | Structure (SMILES) |
| --- | --- |
| 29400 ng·h/mL | Cc1c(N2CCN(Cc3cccc(C(F)(F)F)c3)CC2)c(=O)n(C[C@H](NCCCC(=O)O)c2ccccc2)c(=O)n1Cc1c(F)cccc1C(F)(F)F [Compound 11-2] |
| 19600 ng·h/mL | Cc1cc(F)cc([C@H](Cn2c(=O)c(N3CCN(Cc4ccc(C(F)(F)F)o4)CC3)c(C)n(Cc3c(F)cccc3C(F)(F)F)c2=O)NCCCC(=O)O)c1 [Compound 11-4] |

Target: T1, GnRH receptor (Homo sapiens, UniProt P30968)
T1 sequence (P30968 1-328): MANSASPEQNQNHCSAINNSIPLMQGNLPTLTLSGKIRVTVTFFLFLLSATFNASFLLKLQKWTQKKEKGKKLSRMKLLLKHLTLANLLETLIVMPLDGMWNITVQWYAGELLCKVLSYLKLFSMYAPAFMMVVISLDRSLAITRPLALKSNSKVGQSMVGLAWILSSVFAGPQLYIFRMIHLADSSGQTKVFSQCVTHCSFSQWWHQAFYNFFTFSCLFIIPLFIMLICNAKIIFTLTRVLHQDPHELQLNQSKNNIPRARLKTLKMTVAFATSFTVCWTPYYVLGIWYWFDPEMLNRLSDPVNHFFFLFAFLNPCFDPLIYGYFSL
Experiment: GnRH-R reporter assay (NFAT promoter luciferase, leuprolide acetate as ligand)
Format: cell-based
Settings: not given
Experimental: A double-transformed cell line (HEK293 transformed with pcDNA3.1/GnRH receptor and pGL4/NFAT promoter) was employed. To conduct a GnRH-R reporter assay, the double-transformed cell line was diluted at a density of 3×10^4 cells/well in a medium (DMEM, 10% FBS, 1% Penicillin-Streptomycin), plated into polylysine-coated white-clear bottom 96-well plates and incubated for 24 hrs. After the medium was changed with a serum-free medium (DMEM, 1% Penicillin-Streptomycin), the cells were incubated for an additional 12 hrs before reaction. The cells were incubated for 1 hr with a GnRH antagonist to be tested and then for an additional 6 hrs with a ligand (leuprolide acetate, Sigma), followed by reaction with a Luciferase assay system (Promega, Cat. No. E1500).
Each sample was analyzed at a 6-dose level to obtain the binding inhibitory rates (%) of the competitors on the basis of the measured luminescence. IC50 values were calculated using a nonlinear least square regression method with Prism (GraphPad, Inc.).

| IC50 | Structure (SMILES) |
| --- | --- |
| 9.9 nM | Cc1c(N2CCN(Cc3cccc(C(F)(F)F)c3)CC2)c(=O)n(C[C@H](NCCCC(=O)O)c2ccccc2)c(=O)n1Cc1c(F)cccc1C(F)(F)F [Compound 11-2] |

Same assay, conditions: HEK293 transformed with pcDNA3.1/GnRH receptor and pGL4/NFAT promoter; luciferase; read-out: IC50 Value

| IC50 | Structure (SMILES) |
| --- | --- |
| 4.9 nM | Cc1cc(F)cc([C@H](Cn2c(=O)c(N3CCN(Cc4ccc(C(F)(F)F)o4)CC3)c(C)n(Cc3c(F)cccc3C(F)(F)F)c2=O)NCCCC(=O)O)c1 [Compound 11-4] |

Target: T1, GnRH receptor
Experiment: GnRH receptor membrane binding assay ([125I]-D-Trp6-LHRH competition)
Set-up: purchased Perkin Elmer; host or cells: CHO-K1 (stably transfected), membrane preparation
Settings: not given
Experimental: A membrane Target system (Perkin Elmer), isolated from CHO-K1 cells stably transfected with a GnRH receptor, was employed. […] After incubation at 27° C. for 1 hr, the reaction mix was transferred to a filter (Fitermat A, PerkinElmer) using a vacuum pump and the reaction was terminated by washing many times with 50 mM tris-HCl buffer. The radioactivity on the filter was measured using Microbeta2 trilux (PerkinElmer). The competitors were analyzed for binding inhibition rate (%) on the basis of the measured radioactivity and calculated for IC50 values using a nonlinear least square regression method with Prism (GraphPad, Inc.).

| IC50 | Structure (SMILES) |
| --- | --- |
| < 100 nM | Cc1c(N2CCCC(C)C2)c(=O)n(C[C@H](N)c2ccccc2)c(=O)n1Cc1c(F)cccc1F (stereo partly drawn) [Compound 1-18] |
| < 100 nM | Cc1c(N2CCN(Cc3cccc(OC(F)(F)F)c3)CC2)c(=O)n(C[C@H](N)c2ccccc2)c(=O)n1Cc1c(F)cccc1F [Compound 3-1] |
| < 100 nM | Cc1c(N2CCN(Cc3ccc(O)cc3)CC2)c(=O)n(C[C@H](N)c2ccccc2)c(=O)n1Cc1c(F)cccc1F [Compound 3-31] |
| < 100 nM | Cc1c(N2CCN(Cc3cccc(C(F)(F)F)c3)CC2)c(=O)n(C[C@H](N)c2ccccc2)c(=O)n1Cc1c(F)cccc1F [Compound 3-47] |
| < 100 nM | Cc1c(N2CCN(Cc3cccc(C(F)(F)F)c3F)CC2)c(=O)n(C[C@H](N)c2ccccc2)c(=O)n1Cc1c(F)cccc1F [Compound 3-50] |

Same assay, conditions: membrane from CHO-K1 cells stably transfected with GnRH receptor; 0.2 nM [125I]-D-Trp6-LHRH; Table 26 lists compounds with IC50 of less than 100 nM; read-out: IC50 as measured by the GnRH receptor membrane binding assay

| Structure (SMILES) | IC50 |
| --- | --- |
| Cc1c(N2CCN(Cc3ccc4c(c3)OCO4)CC2)c(=O)n(C[C@H](N)c2ccccc2)c(=O)n1Cc1c(F)cccc1F [Compound 1-13] | < 100 nM |
| Cc1c(N2CCC(C)CC2)c(=O)n(C[C@H](N)c2ccccc2)c(=O)n1Cc1c(F)cccc1F [Compound 1-16] | < 100 nM |
| Cc1c(N2CCC(Cc3ccccc3)CC2)c(=O)n(C[C@H](N)c2ccccc2)c(=O)n1Cc1c(F)cccc1F [Compound 1-26] | < 100 nM |
| Cc1c(N2CCN(Cc3cccnc3)CC2)c(=O)n(C[C@H](N)c2ccccc2)c(=O)n1Cc1c(F)cccc1F [Compound 3-7] | < 100 nM |
| CSc1ccc(CN2CCN(c3c(C)n(Cc4c(F)cccc4F)c(=O)n(C[C@H](N)c4ccccc4)c3=O)CC2)cc1 [Compound 3-29] | < 100 nM |
| Cc1cc(C)c(CN2CCN(c3c(C)n(Cc4c(F)cccc4F)c(=O)n(C[C@H](N)c4ccccc4)c3=O)CC2)c(C)c1 [Compound 3-32] | < 100 nM |
| Cc1c(N2CCN(Cc3ccc(OC(F)(F)F)cc3)CC2)c(=O)n(C[C@H](N)c2ccccc2)c(=O)n1Cc1c(F)cccc1F [Compound 3-49] | < 100 nM |
| Cc1c(N2CCN(Cc3ccc(F)c(C(F)(F)F)c3)CC2)c(=O)n(C[C@H](N)c2ccccc2)c(=O)n1Cc1c(F)cccc1F [Compound 3-52] | < 100 nM |
| CCOP(=O)(O)CCCN[C@@H](Cn1c(=O)c(N2CCN(Cc3ccc(C(F)(F)F)o3)CC2)c(C)n(Cc2c(F)cccc2C(F)(F)F)c1=O)c1ccccc1 [Compound 11-10] | < 100 nM |
| N[C@@H](Cn1c(=O)c(N2CCN(Cc3cccc(-c4nnn[nH]4)c3)CC2)cn(Cc2c(F)cccc2C(F)(F)F)c1=O)c1ccccc1 [Compound 18, 3-((R)-2-amino-2-phenyl-ethyl)-1-(2-fluoro-6-trifluoromethyl-benzyl)-5-{4-[3-(1H-tetrazol-5-yl)-benzyl]-piperazin-1-yl}-1H-pyrimidine-2,4-dione] | < 100 nM |
| Cc1c(N2CCN(Cc3ccc(C(F)(F)F)o3)CC2)c(=O)n(C[C@H](O)c2ccccc2)c(=O)n1Cc1c(F)cccc1C(F)(F)F [Compound 20, 1-(2-fluoro-6-trifluoromethyl-benzyl)-3-((R)-2-hydroxy-2-phenyl-ethyl)-6-methyl-5-[4-(5-trifluoromethyl-furan-2-ylmethyl)-piperazin-1-yl]-1H-pyrimidine-2,4-dione] | < 100 nM |
| Cc1c(N2CCN(Cc3ccc(C(F)(F)F)o3)CC2)c(=O)n(C[C@H](NCCC(O)C(=O)O)c2ccccc2)c(=O)n1Cc1c(F)cccc1C(F)(F)F (stereo partly drawn) [Compound 21, 4-((R)-2-{3-(2-fluoro-6-trifluoromethyl-benzyl)-4-methyl-2,6-dioxo-5-[4-(5-trifluoromethyl-furan-2-ylmethyl)-piperazin-1-yl]-3,6-dihydro-2H-pyrimidin-1-yl}-1-phenyl-ethylamino)-2-hydroxy-butyric acid] | < 100 nM |
| Cc1c(N2CCN(Cc3ccc(C(F)(F)F)o3)C(CO)C2)c(=O)n(C[C@H](N)c2ccccc2)c(=O)n1Cc1c(F)cccc1C(F)(F)F (stereo partly drawn) [Compound 22, 3-((R)-2-amino-2-phenyl-ethyl)-1-(2-fluoro-6-trifluoromethyl-benzyl)-5-[3-hydroxymethyl-4-(5-trifluoromethyl-furan-2-ylmethyl)-piperazin-1-yl]-6-methyl-1H-pyrimidine-2,4-dione] | < 100 nM |

The next lines start with the values.

| IC50 | Structure (SMILES) |
| --- | --- |
| < 100 nM | Cc1ccc(CN2CCN(c3c(C)n(Cc4c(F)cccc4F)c(=O)n(C[C@H](N)c4ccccc4)c3=O)CC2)c(C)c1 [Compound 4-4] |
| < 100 nM | Cc1cccc(C)c1CN1CCN(c2c(C)n(Cc3c(F)cccc3F)c(=O)n(C[C@H](N)c3ccccc3)c2=O)CC1 [Compound 4-6] |
| < 100 nM | Cc1cccc(CN2CCN(c3c(C)n(Cc4c(F)cccc4F)c(=O)n(C[C@H](N)c4ccccc4)c3=O)CC2)c1O [Compound 4-9] |
| < 100 nM | COC(=O)CNC(=O)c1cccc(CN2CCN(c3c(C)n(Cc4c(F)cccc4C(F)(F)F)c(=O)n(C[C@H](N)c4ccccc4)c3=O)CC2)c1 [Compound 10-1] |
| < 100 nM | CCOC(=O)CCNC(=O)c1cccc(CN2CCN(c3c(C)n(Cc4c(F)cccc4C(F)(F)F)c(=O)n(C[C@H](N)c4ccccc4)c3=O)CC2)c1 [Compound 10-2] |
| < 100 nM | Cc1c(N2CCN(Cc3ccc(C(F)(F)F)o3)CC2)c(=O)n(C[C@H](NCCCCC(=O)O)c2ccccc2)c(=O)n1Cc1c(F)cccc1C(F)(F)F [Compound 11-8] |
